Measured values taken from patent publication US6576422B1, “Method for identifying products employing gene expression” (Rohm and Haas Company, priority 2000, dated 2003).

Columns and labels:
BRL-AG2 cells = test: Insect cell-based marker ligand assay (EcR gene switch, β-galactosidase reporter), BRL-AG2 cells; conditions: 48 h
L57 cells = test: Insect cell-based marker ligand assay (EcR gene switch, β-galactosidase reporter), L57 cells; conditions: Drosophila melanogaster, 48 h, read-out: L57 Cells (Fold Induction)
[1] = read-out: BRL-AG2 (Fold Induction)
[2] = read-out: BRL-AG2 Cells (Fold Induction)

## COc1cccc(C(=O)NN(C(=O)c2cc(C)cc(C)c2)C(C)(C)C)c1C [Marker, N′-tert-butyl-N′-(3 ,5-dimethylbenzoyl)-3-methoxy-2-methylbenzohydrazide]
BRL-AG2 cells; [1]
  fold induction at 0.12 µg/mL: 16
  fold induction at 1.2 µg/mL: 21
  fold induction at 12 µg/mL: 31
BRL-AG2 cells; [2]
  fold induction at 0.07 µg/mL: 151
  fold induction at 0.69 µg/mL: 182
  fold induction at 6.95 µg/mL: 202
L57 cells
  fold induction at 0.07 µg/mL: 27
  fold induction at 0.12 µg/mL: 1
  fold induction at 0.69 µg/mL: 46
  fold induction at 1.2 µg/mL: 23
  fold induction at 6.95 µg/mL: 63
  fold induction at 12 µg/mL: 30
